Experimental data reported in patent US7381554B2, “UDP-N-acetylglucosamine: galactose-β1,3-N-acetylgalactosamine-α-R/N-acetylglucosamine-β1,3-N-acetylgalactosamine-α-R (GlcNAc to GalNAc) β1,6-N-acetylglucosaminyltransferase, C2/4GnT” (Glycozym ApS, priority 1998, dated 2008).

Columns and labels:
C2/4GnT = target: T1, C2/4GnT (Homo sapiens, UniProt O95395); experiment: C2/4GnT GlcNAc-transferase activity assay with acceptor/donor substrates; format: biochemical; conditions: for C2/4GnT activity with donor substrate (in words): as donor substrate, data not shown; for Substrate specificity: C2/4GnT activity, 2 mM: acceptor substrate 2 mM; for Substrate specificity: C2/4GnT activity, 2 mM / Substrate specificity: C2/4GnT activity, 10 mM: partially purified media of infected High Five cells, background subtracted; for Substrate specificity: C2/4GnT activity, 10 mM: acceptor substrate 10 mM; for C2/4GnT activity with acceptor substrate (in words): as acceptor substrate; for Substrate inhibition of C2/4GnT enzyme activity: high acceptor concentrations up to 20 mM
T1 construct: An expression construct designed to encode amino acid residues 31-438 of C2/4GnT was prepared by PCR using P1 DNA; gp67 secretion signal of vector pAcGP67A (own knowledge of the vector); made in house; host or cells: Sf9 cells (culture supernatant, standard assays); High Five cells (partially purified enzyme, kinetics)
T1 sequence (O95395 31-438): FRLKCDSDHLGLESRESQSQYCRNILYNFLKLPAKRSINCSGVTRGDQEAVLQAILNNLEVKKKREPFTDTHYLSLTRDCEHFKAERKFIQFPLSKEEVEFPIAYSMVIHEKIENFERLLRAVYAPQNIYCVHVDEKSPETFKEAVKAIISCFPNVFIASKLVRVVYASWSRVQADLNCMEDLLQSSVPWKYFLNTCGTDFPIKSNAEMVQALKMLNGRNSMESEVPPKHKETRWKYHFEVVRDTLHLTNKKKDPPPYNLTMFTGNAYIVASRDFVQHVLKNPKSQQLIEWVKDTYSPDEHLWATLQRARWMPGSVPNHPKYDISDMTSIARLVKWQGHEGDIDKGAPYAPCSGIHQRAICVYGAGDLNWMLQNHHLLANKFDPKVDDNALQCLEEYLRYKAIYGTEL
Method: (§1) An expression construct designed to encode amino acid residues 31-438 of C2/4GnT was prepared by PCR using P1 DNA, and the primer pair TSHC55 (5′-[…]-3′) (SEQ ID NO:8) and TSHC45 (SEQ ID NO:5) (FIG. 2). The PCR product was cloned into the EcoRI site of pAcGP67A (PharMingen), and the insert was fully sequenced. pAcGP67-C2/4GnT-sol was co-transfected with Baculo-Gold™ DNA (PharMingen) as described previously (14). Recombinant Baculo-virus were obtained after two successive amplifications in Sf9 cells grown in serum-containing medium, and titers of virus were estimated by titration in 24-well plates with monitoring of enzyme activities.
(§2) Controls included the pAcGP67-GalNAc-T3-sol (15). The kinetic properties were determined with partially purified enzymes expressed in High Five™ cells. Partial purification was performed by consecutive chromatography on Amberlite IRA-95, DEAE-Sephacryl and CM-Sepharose essentially as described (16).
as §1, with “sequenced. Plasmids” for “sequenced.”, “pAcGP67-C2/4GnT-sol and pAcGP67-C2GnT-sol were” for “pAcGP67-C2/4GnT-sol was”, “activities. Controls included the pAcGP67-GalNAc-T3-sol (15).” for “activities.”
(§3) Standard assays were performed using culture supernatant from infected cells in 50 μl reaction mixtures containing 100 mM MES […], 10 mM EDTA, 10 mM 2-Acetamido-2-deoxy-D-glucono-1,5-lacton, 180 μM UDP-[^14C]-GlcNAc (6,000 cpm/nmol) (Amersham Pharmacia Biotech), and the indicated concentrations of acceptor substrates (Sigma and Toronto Research Laboratories Ltd., see Table I for structures). Semi-purified C2/4GnT was assayed in 50 μl reaction mixtures containing 100 mM MES (pH 7), 5 mM EDTA, 90 μM UDP-[^14C]-GlcNAc (3,050 cpm/nmol) (Amersham Pharmacia Biotech), and the indicated concentrations of acceptor substrates. Reaction products were quantified by chromatography on Dowex AGI-X8.

C2GnT = target: T2, C2GnT (Homo sapiens, UniProt Q02742); experiment: C2GnT GlcNAc-transferase activity assay with acceptor substrates; format: biochemical; conditions: partially purified media of infected High Five cells, background subtracted; for Substrate specificity: C2GnT activity, 2 mM: acceptor substrate 2 mM; for Substrate specificity: C2GnT activity, 10 mM: acceptor substrate 10 mM
T2 construct: Plasmids pAcGP67-C2/4GnT-sol and pAcGP67-C2GnT-sol were co-transfected with; gp67 secretion signal of vector pAcGP67 (own knowledge of the vector); made in house; host or cells: Sf9 cells (baculovirus, culture supernatant)
T2 sequence (Q02742 33-428 limits assumed): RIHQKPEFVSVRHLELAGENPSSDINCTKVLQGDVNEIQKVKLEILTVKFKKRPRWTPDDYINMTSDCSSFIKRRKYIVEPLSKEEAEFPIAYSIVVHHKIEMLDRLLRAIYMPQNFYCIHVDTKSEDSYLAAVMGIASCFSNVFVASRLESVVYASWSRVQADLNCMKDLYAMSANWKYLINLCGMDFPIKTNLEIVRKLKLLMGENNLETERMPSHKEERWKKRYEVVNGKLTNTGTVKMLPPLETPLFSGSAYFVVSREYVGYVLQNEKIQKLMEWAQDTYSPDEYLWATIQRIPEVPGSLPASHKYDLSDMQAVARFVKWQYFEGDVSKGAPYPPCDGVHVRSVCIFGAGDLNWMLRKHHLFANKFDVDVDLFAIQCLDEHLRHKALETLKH
Method: as §2
as §1, with “sequenced. Plasmids” for “sequenced.”, “pAcGP67-C2/4GnT-sol and pAcGP67-C2GnT-sol were” for “pAcGP67-C2/4GnT-sol was”, “activities. Controls included the pAcGP67-GalNAc-T3-sol (15).” for “activities.”
as §3

C2/4GnT activity with donor substrate (in words) (C2/4GnT)	Substrate specificity: C2/4GnT activity, 2 mM (C2/4GnT)	Substrate specificity: C2/4GnT activity, 10 mM (C2/4GnT)	C2/4GnT activity with acceptor substrate (in words) (C2/4GnT)	Substrate specificity: C2GnT activity, 2 mM (C2GnT)	Substrate specificity: C2GnT activity, 10 mM (C2GnT)	Substrate inhibition of C2/4GnT enzyme activity (C2/4GnT)	Compound
strict donor substrate specificity							CC(=O)N[C@H]1[C@@H](OP(=O)(O)OP(=O)(O)OC[C@H]2O[C@@H](n3ccc(=O)[nH]c3=O)[C@H](O)[C@@H]2O)O[C@H](CO)[C@@H](O)[C@@H]1O [UDP-GlcNAc, UDP-N-acetylglucosamine]
	<0.1 nmol/h/mg	<0.1 nmol/h/mg	no activity	<0.1 nmol/h/mg	<0.1 nmol/h/mg		CC(=O)N[C@H]1[C@@H](Oc2ccc([N+](=O)[O-])cc2)O[C@H](CO)[C@H](O)[C@@H]1O [α-D-GalNAc-1-p-Nph]
	2.8 nmol/h/mg	7.3 nmol/h/mg		9.6 nmol/h/mg	19.0 nmol/h/mg		CC(=O)N[C@@H]1[C@@H](O[C@@H]2O[C@H](CO)[C@H](O)[C@H](O)[C@H]2O)[C@@H](O)[C@@H](CO)O[C@@H]1O [β-D-Gal-(1-3)-α-D-GalNAc]
	16.1 nmol/h/mg	21.8 nmol/h/mg		16.2 nmol/h/mg	23.6 nmol/h/mg	No substrate inhibition	CC(=O)N[C@H]1[C@@H](Oc2ccc([N+](=O)[O-])cc2)O[C@H](CO)[C@H](O)[C@@H]1O[C@@H]1O[C@H](CO)[C@H](O)[C@H](O)[C@H]1O [β-D-Gal-(1-3)-α-D-GalNAc-1-p-Nph]
	<0.1 nmol/h/mg	<0.1 nmol/h/mg	no activity	<0.1 nmol/h/mg	<0.1 nmol/h/mg		CO[C@@H]1O[C@H](CO)[C@H](O)[C@H](O[C@@H]2O[C@H](CO)[C@@H](O)[C@H](O)[C@H]2NC(C)=O)[C@H]1O [β-D-GlcNAc-(1-3)-β-D-Gal-1-Me]
no activity							CC(=O)N[C@H]1[C@@H](OP(=O)(O)OP(=O)(O)OC[C@H]2O[C@@H](n3ccc(=O)[nH]c3=O)[C@H](O)[C@@H]2O)O[C@H](CO)[C@H](O)[C@@H]1O [UDP-GalNAc]
	<0.1 nmol/h/mg	<0.1 nmol/h/mg	no activity	<0.1 nmol/h/mg	<0.1 nmol/h/mg		CC(=O)N[C@H]1[C@H](O[C@H]2[C@@H](O)[C@@H](CO)O[C@@H](O[C@H]3[C@H](O)[C@@H](O)C(O)O[C@@H]3CO)[C@@H]2O)O[C@H](CO)[C@@H](O[C@@H]2O[C@H](CO)[C@H](O)[C@H](O)[C@H]2O)[C@@H]1O (mixture of isomers) [lacto-N-neo-tetraose]
	<0.1 nmol/h/mg	<0.1 nmol/h/mg		<0.1 nmol/h/mg	<0.1 nmol/h/mg		CC(=O)N[C@H]1C(O)O[C@H](CO)[C@H](O)[C@@H]1O (stereo partly drawn) [D-GalNAc]
	5.2 nmol/h/mg	7.4 nmol/h/mg		<0.1 nmol/h/mg	<0.1 nmol/h/mg	No substrate inhibition	CC(=O)NC1C(OC2C(O)C(CO)OC(Oc3ccc([N+](=O)[O-])cc3)C2NC(C)=O)OC(CO)C(O)C1O [β-D-GlcNAc-(1-3)-α-D-GalNAc-1-p-Nph]
